Values after ≈ are worked out from the molar mass of the structure shown.
Assays:
Assay in all cases: In vitro antimicrobial activity, MIC by broth microdilution (CLSI)
Assay type in all cases: cell-based
A. baumannii JMI2346 = conditions: Acinetobacter baumannii, JMI2346; OXA-51, TEM, ESBL and OXA-type carbapenemase producing strain; 5×10^5 cfu/mL; cation-adjusted Iso-Sensitest broth containing human Apo-transferrin; read-out: Minimum Inhibitory Concentration (MIC) A. baumannii JMI:2346
Description: (§1) Compound (I) of the invention was evaluated for in vitro antimicrobial activity thereof.
(§2) Measurement of Minimum Inhibitory Concentration (MIC: μg/mL) was conducted according to CLSI (Clinical and Laboratory Standards Institute) method, and the amount of bacteria for inoculation was 5×10^5 cfu/mL, and cation-adjusted Iso-Sensitest broth containing human Apo-transferrin was used as a test medium, and the experiment was conducted using broth microdilution method. The bacteria used are listed below.

A. baumannii JMI7 = conditions: Acinetobacter baumannii, JMI7; PER-1, OXA-23, 51, ESBL and OXA-type carbapenemase producing strain; 5×10^5 cfu/mL; cation-adjusted Iso-Sensitest broth containing human Apo-transferrin; read-out: Minimum Inhibitory Concentration (MIC) A. baumannii JMI:7
Description: as §1, §2

E. Coli JMI1890 = conditions: Escherichia coli; PER-1, TEM-1, ESBL producing strain; 5×10^5 cfu/mL; cation-adjusted Iso-Sensitest broth containing human Apo-transferrin; read-out: Minimum Inhibitory Concentration (MIC) E. Coli JMI:1890
Description: as §1, §2

K. pneumoniae SR01358 = conditions: Klebsiella pneumoniae, SR01358; KPC-2, ESBL and KPC-type carbapenemase producing strain; 5×10^5 cfu/mL; cation-adjusted Iso-Sensitest broth containing human Apo-transferrin; read-out: Minimum Inhibitory Concentration (MIC) K. pneumoniae SR01358
Description: as §1, §2

SMILES	MIC (A. baumannii JMI2346) [µg/mL]	MIC (A. baumannii JMI7) [µg/mL]	MIC (E. Coli JMI1890) [µg/mL]	MIC (K. pneumoniae SR01358) [µg/mL]
C[C@@H]1S[C@@H]2[C@H](NC(=O)/C(=N\OC(C)(C)C(=O)[O-])c3csc(N)n3)C(=O)N2C(C(=O)O)=C1C[N@+]12CCC[C@H]1CN(C(=O)c1ccc(O)c(O)c1Cl)CC2 [Compound I-41]	4 (≈ 5.14 µM)	1 (≈ 1.28 µM)	1 (≈ 1.28 µM)	0.063 (≈ 0.0809 µM)
CC[N+](CC)(CCNC(=O)c1ccc(O)c(O)c1Cl)CC1=C(C(=O)O)N2C(=O)[C@@H](NC(=O)/C(=N\OC(C)(C)C(=O)[O-])c3csc(N)n3)[C@H]2S[C@H]1C [Compound I-37]	4 (≈ 5.21 µM)	1 (≈ 1.3 µM)	0.5 (≈ 0.651 µM)	0.125 (≈ 0.163 µM)
C[C@@H]1S[C@@H]2[C@H](NC(=O)/C(=N\OC(C)(C)C(=O)[O-])c3csc(N)n3)C(=O)N2C(C(=O)[O-])=C1C[N+]12CCC(CNC(=O)C(=O)c3ccc(O)c(O)c3Cl)(CC1)CC2.[Na+] [Compound I-3]	2	0.5	0.5	≤ 0.031
C[C@@H]1S[C@@H]2[C@H](NC(=O)/C(=N\OC(C)(C)C(=O)[O-])c3csc(N)n3)C(=O)N2C(C(=O)O)=C1C[N+]12CCC(CNC(=O)/C(=N\OCC(=O)O)c3ccc(O)c(O)c3Cl)(CC1)CC2 [Compound I-98]	4 (≈ 4.48 µM)	0.5 (≈ 0.56 µM)	0.063 (≈ 0.0705 µM)	≤ 0.031
C[C@@H]1S[C@@H]2[C@H](NC(=O)/C(=N\OC(C)(C)C(=O)O)c3csc(N)n3)C(=O)N2C(C(=O)[O-])=C1C[N+]12CCC(Cn3ncc4cc(O)c(O)cc4c3=O)(CC1)CC2 [Compound I-124]	2 (≈ 2.55 µM)	0.5 (≈ 0.639 µM)	0.125 (≈ 0.16 µM)	≤ 0.031
C[C@@H]1S[C@@H]2[C@H](NC(=O)/C(=N\OC(C)(C)C(=O)[O-])c3csc(N)n3)C(=O)N2C(C(=O)[O-])=C1C[N+]12CCC(CC1)N(C(=O)C(=O)c1ccc(O)c(O)c1)CC2.[Na+] [Compound I-108]	2	0.5	0.5	≤ 0.031
C[C@@H]1S[C@@H]2[C@H](NC(=O)/C(=N\OC(C)(C)C(=O)[O-])c3csc(N)n3)C(=O)N2C(C(=O)O)=C1C[N+]12CCC(CNC(=O)/C(=N\OCC(=O)O)c3ccc(O)c(O)c3Cl)(CC1)C2 [Compound I-101]	0.5 (≈ 0.569 µM)	0.25 (≈ 0.284 µM)	0.063 (≈ 0.0716 µM)	≤ 0.031
C[C@@H]1S[C@@H]2[C@H](NC(=O)/C(=N\OC(C)(C)C(=O)[O-])c3csc(N)n3)C(=O)N2C(C(=O)[O-])=C1C[N+]12CCC(CNC(=O)c3cc(O)c(O)c(F)c3)(CC1)C2.[Na+] [Compound I-117]	1	0.5	≤ 0.031	0.25
C[C@@H]1S[C@@H]2[C@H](NC(=O)/C(=N\OC(C)(C)C(=O)[O-])c3csc(N)n3)C(=O)N2C(C(=O)O)=C1C[N+]12CCC(CC1)N(C(=O)/C(=N\O)c1ccc(O)c(O)c1Cl)CC2 [Compound I-137]	2 (≈ 2.44 µM)	0.5 (≈ 0.609 µM)	0.25 (≈ 0.304 µM)	≤ 0.031
C[C@@H]1S[C@@H]2[C@H](NC(=O)/C(=N\OC(C)(C)C(=O)[O-])c3csc(N)n3)C(=O)N2C(C(=O)O)=C1C[N+]1(CCN2C(=O)c3ccc(O)c(O)c3C2=O)CCCCC1 [Compound I-42]	2 (≈ 2.59 µM)	0.5 (≈ 0.648 µM)	0.5 (≈ 0.648 µM)	0.063 (≈ 0.0816 µM)
C[C@@H]1S[C@@H]2[C@H](NC(=O)/C(=N\OC(C)(C)C(=O)O)c3csc(N)n3)C(=O)N2C(C(=O)[O-])=C1C[N+]12CCC(Cn3cnc4cc(O)c(O)c(Cl)c4c3=O)(CC1)C2 [Compound I-165, (4S,6R,7R)-7-((Z)-2-(2-aminothiazol-4-yl)-2-(((2-carboxypropan-2-yl)oxy)imino)acetamido)-3-((4-((5-chloro-6,7-dihydroxy-4-oxoquinazolin-3(4H)-yl)methyl)-1-azabicyclo[2.2.1]heptan-1-ium-1-yl)methyl)-4-methyl-8-oxo-5-thia-1-azabicyclo[4.2.0]oct-2-ene-2-carboxylate]	1 (≈ 1.24 µM)	0.5 (≈ 0.622 µM)	≤ 0.031	≤ 0.031

— US10174053B2, “2 substituted cephem compounds” (Glaxo Group Limited, priority 2012, dated 2019)
